# Measurements from US20080262073A1, “Pyrrolic Derivatives with Histone Deacetylase Inhibitory Activity” (priority 2005, published 2008).
row,Compound,melting point
1,COc1ccc(-c2cc(-c3ccccc3)[nH]c2C(=O)NCCCCCC(=O)NO)cc1 [Example 8],142 °C
2,"CNNC(=O)NCCCCNC(=O)c1[nH]c(-c2ccc(OC)cc2)c([N+](=O)[O-])c1-c1cccs1 [Example 11, 1-(4-(5-(4-methoxyphenyl)-4-nitro-3-(thiophene-2-yl)-1H-pyrrole-2-carboxamide)butyl)-3-(2-methylamine)urea]",185 to 187 °C
3,COc1ccc(-c2cc(-c3ccccc3)c(C(=O)NCCCCCC(=O)NO)[nH]2)cc1 [Example 6],157 to 158 °C
4,COc1ccc(-c2[nH]c(C(=O)NCCCCCC(=O)NO)c(-c3ccccc3)c2[N+](=O)[O-])cc1 [Example 7],126 to 127 °C

# Continued, values first:
row,melting point,Compound
1,228 to 229 °C,"O=C(O)CCCCCNC(=O)c1[nH]c(-c2ccccc2)cc1-c1ccccc1 [Example 4, 6-(3,5-diphenyl-1H-pyrrole-2-carboxamide)hexanoic acid]"
2,153 to 154 °C,"O=C(O)CCCCCNC(=O)c1[nH]c(-c2ccccc2)c([N+](=O)[O-])c1-c1ccccc1 [Example 5, 6-(4-nitro-3,5-diphenyl-1H-pyrrole-2-carboxamide)hexanoic acid]"
